Results taken from patent US20130230580A1, “Administration of SNS Neuroprotective Agents to Promote Hematopoietic Regeneration” (priority 2010, published 2013).
Where “and” joins values, the source holds several entries; their conditions need not be identical. Equal entries are not always repeated. Entries after “also recorded” stand apart in the source; their conditions may differ.

What was measured:
bone marrow [1] = experiment: Bone marrow regeneration after 5FU (or sublethal irradiation) in 60HDA-sympathectomized mice; assay type: in vivo
Experimental: (§1) To induce acute peripheral sympathectomy, mice received two i.p. injections of 60HDA (Sigma; 100 mg/kg on day 0; 250 mg/kg on day 2). Three days after the last injection of 60HDA mice were euthanized for analysis, transplanted (see below) or injected with 5-fluorouracil (see below).
(§2) To induce bone marrow ablation and force quiescent HSC to proliferate, 5FU (250 mg/kg; Sigma) was injected i.v. under isoflurane (Phoenix Pharmaceuticals) anesthesia. Mice were allowed to recover and analyzed at the indicated time points.
(§3) To induce neuroprotection from 60HDA, mice were injected with 4-MC (10 μg/kg; i.p.) or GDNF-Fc (5 μg per mice; s.c.) for 5 days, starting the treatment the same day as the first injection of 60HDA.
(§4) Blood was harvested by retro-orbital sampling of mice anesthetized with isoflurane and collected in polypropylene tubes containing ethylenediaminetetraacetic acid (EDTA). Blood parameters were determined with an AcT differential counter (Beckman-Coulter). CFU-C assays were performed as described in He et al., Ann. Rev. Cell. Dev. Biol. 25:377 (2009), incorporated herein by reference. For flow cytometry, red blood cells were lysed thrice for 5 minutes at 4° C. in 0.15 M NH4Cl, cells were washed once in ice-cold PBS and counted in a hemocytometer. To determine Lin^−Sca1^+c-kit^+ or Lin^−Sca1^+c-kit^+ft13^− numbers, 10^6 cells were stained with the Mouse Lineage Panel (BD Biosciences) together with FITC-conjugated anti-Sca-1 antibody (BD Biosciences), PE-Cy7-conjugated anti-c-kit antibody (eBioscience) and PE-conjugated anti-flt3 antibody (eBioscience). Cells were further stained with streptavidin-Cy5 (Jackson Immunotech) and analyzed with a BD LSR11 system (BD Biosciences). Bone marrow was harvested by flushing the bone with 1 mL of ice-cold PBS, red blood cells were lysed once for 5 minutes at 4° C. in 0.15 M NH4Cl, cells were washed once in ice-cold PBS and counted with a hemocytometer. CFU-C and Lin^−Sca1^+c-kit^+ft13^− numbers were determined as above. In some experiments, CD150^+CD48^− cell numbers were determined by staining 5×10^6 cells with PE-anti-CD48 antibody (BD Biosciences) and PE-Cy7-anti-CD150 antibody (Biolegend).

[2] = Survival after 5FU injection in 60HDA-sympathectomized mice; assay type: in vivo; conditions: 60HDA-sympathectomized vs saline mice
Experimental: as §1, §2, §3

[3] = Complete blood counts of moribund 6OHDA-treated mice after 5FU; assay type: in vivo; conditions: for CH / CHCM / HDW / HCT / Hgb / MCH / MCHC / RDW: moribund 6OHOA-treated mouse
Experimental: as §1, §2, §4

[4] = Survival after lethal irradiation and bone marrow transplantation; assay type: in vivo; conditions: lethally irradiated, transplanted with wild-type BMNC
Experimental: To protect from kidney damage, mice were simultaneously subcutaneously (s.c.) injected with 1 mL of saline solution.
as §1
(§5) Mice were irradiated (1,200 cGy, two split doses, 3 hours apart) in a Cesium Mark 1 irradiator (JL Shepperd & associates). Three hours later, the indicated number of BMNCs was injected retroorbitally in the irradiated recipients under isoflurane (Phoenix Pharmaceuticals) anesthesia. Mice were allowed to recover and analyzed at the indicated time points.
as §3

bone marrow [5] = experiment: Steady-state bone marrow analysis after cisplatin or 60HDA treatment; assay type: in vivo, mice; conditions: 3 days after last 60HDA injection
Experimental: To protect from kidney damage, mice were simultaneously subcutaneously (s.c.) injected with 1 mL of saline solution. Four weeks after the last injection of cisplatin, mice were euthanized for analysis, transplanted (see below) or mobilized with granulocyte colony-stimulating factor (G-CSF, see below).
as §1
Blood was harvested by retro-orbital sampling of mice anesthetized with isoflurane and collected in polypropylene tubes containing ethylenediaminetetraacetic acid (EDTA). Blood parameters were determined with an AcT differential counter (Beckman-Coulter). […] For flow cytometry, red blood cells were lysed thrice for 5 minutes at 4° C. in 0.15 M NH4Cl, cells were washed once in ice-cold PBS and counted in a hemocytometer. […] Cells were further stained with streptavidin-Cy5 (Jackson Immunotech) and analyzed with a BD LSR11 system (BD Biosciences). Bone marrow was harvested by flushing the bone with 1 mL of ice-cold PBS, red blood cells were lysed once for 5 minutes at 4° C. in 0.15 M NH4Cl, cells were washed once in ice-cold PBS and counted with a hemocytometer. […]

bone marrow [6] = experiment: CFU-C homing efficiency to bone marrow; assay type: in vivo; conditions: compared to control mice, 24 hours after irradiation and BMNC injection
bone marrow [7] = experiment: Bone marrow hematopoietic recovery after transplantation (BMNC, CFU-C, Lin-Sca1+c-kit+flt3- cells); assay type: in vivo, mice; conditions: about 4 weeks / 30 days post-transplantation, vs saline
Experimental: as §5, with “points. […]” for “points.”
as §4

Nestin+ niche cells = experiment: HSC niche cell analyses (Nestin+ cells, osteoblasts, endothelial cells, macrophages, α-SMA+ cells); assay type: in vivo
Text: Since the SNS directs HSC trafficking by acting on Nestin^+ niche cells through the β3 adrenergic receptor, the changes that occurred in the HSC niche after SNS injury and genotoxic insult were investigated. […] The reason for reduced Nestin^+ numbers in SNS-injured mice during BM recovery was then investigated.

[8] = 60HDA-treated mice, eight days after 5FU
[9] = 10 days after 5FU (250 mg/kg), listed as 6OHOA

With `NCCc1cc(O)c(O)cc1O` [60HDA, 6-hydroxydopamine] the “hematopoietic recovery after 5FU” value (bone marrow [1]; 60HDA-sympathectomized mice, day 12) was “significantly impaired hematopoietic recovery”, the “BM recovery after sublethal irradiation” value (bone marrow [1]; 60HDA-treated mice, 12 days after irradiation) was “Reduced BM recovery” and the “Lin-Sca1+c-kit+flt3- cell expansion after 5FU” value (bone marrow [1]; 60HDA-treated mice, days 4 to 12) was “blunted”. The LSK cell proliferation (bone marrow [1]; [8]) was “increased proliferation”, the LSK cell viability (bone marrow [1]; [8]) was “reduced viability” and the “survival after 5FU” value [2] was “dramatically reduced their survival”. The “cause of reduced survival after 5FU” value ([3]; 60HDA-sympathectomized mice) was “BM failure”, the CH ([3]; 8 days after 5FU (250 mg/kg)) was 13.3 pg and 12.8 pg and 12.9 pg and the CHCM ([3]; 8 days after 5FU (250 mg/kg)) was 32.8 g·dL and 31.8 g·dL and 31.2 g·dL. The HDW ([3]; 8 days after 5FU (250 mg/kg)) was 2.34 g·dL and 1.78 g·dL and 1.74 g·dL, the CH ([3]; 9 days after 5FU (250 mg/kg)) was 13.5 pg and the CHCM ([3]; 9 days after 5FU (250 mg/kg)) was 33.7 g·dL and 33 g·dL. For the same molecule, the HCT ([3]; 9 days after 5FU (250 mg/kg)) was 11, the HDW ([3]; 9 days after 5FU (250 mg/kg)) was 2.27 g·dL and 2.34 g·dL and the Hgb ([3]; 9 days after 5FU (250 mg/kg)) was 3 g·dL. The MCH ([3]; 9 days after 5FU (250 mg/kg)) was 9.7 pg and 9.1 pg, the MCHC ([3]; 9 days after 5FU (250 mg/kg)) was 24.3 g·dL and 22.3 g·dL and the RDW ([3]; 9 days after 5FU (250 mg/kg)) was 12.5 and 12.6. The CH [3, 9] was 12.8 pg and 12.9 pg, the CHCM [3, 9] was 29.3 g·dL and 30.5 g·dL and the HCT [3, 9] was 13 and 10. The HDW [3, 9] was 1.67 g·dL and 2.03 g·dL, the Hgb [3, 9] was 4 g·dL and 6 g·dL and the MCH [3, 9] was 12.8 pg and 18.9 pg. For the same molecule, the MCHC [3, 9] was 29.3 g·dL and 44.4 g·dL, the RDW [3, 9] was 12.2 and 13.2 and the CH ([3]; 11 days after 5FU (250 mg/kg)) was 13.2 pg. For the same molecule, the CHCM ([3]; 11 days after 5FU (250 mg/kg)) was 30.7 g·dL, the HCT ([3]; 11 days after 5FU (250 mg/kg)) was 14 and the HDW ([3]; 11 days after 5FU (250 mg/kg)) was 1.95 g·dL. It also gave a Hgb ([3]; 11 days after 5FU (250 mg/kg)) of 3 g·dL, an MCH ([3]; 11 days after 5FU (250 mg/kg)) of 10.5 pg and an MCHC ([3]; 11 days after 5FU (250 mg/kg)) of 24.3 g·dL. The RDW ([3]; 11 days after 5FU (250 mg/kg)) was 11.3, the CH ([3]; 12 days after 5FU (250 mg/kg)) was 12.6 pg and the CHCM ([3]; 12 days after 5FU (250 mg/kg)) was 31.1 g·dL. For the same molecule, the HCT ([3]; 12 days after 5FU (250 mg/kg)) was 15, the HDW ([3]; 12 days after 5FU (250 mg/kg)) was 2.31 g·dL and the Hgb ([3]; 12 days after 5FU (250 mg/kg)) was 3 g·dL. The MCH ([3]; 12 days after 5FU (250 mg/kg)) was 9.3 pg, the MCHC ([3]; 12 days after 5FU (250 mg/kg)) was 22.9 g·dL and the RDW ([3]; 12 days after 5FU (250 mg/kg)) was 13.5. For the same molecule, the mortality after transplantation [4] was “significant increase in mortality”, the “BM cellularity, CFU-C, Lin-Sca1+c-kit+flt3-, CD48-CD150+ cell numbers, Lin-Sca1+c-kit+ cell cycling” value (bone marrow [5]) was “did not alter; also recorded: does not induce significant changes” and the CFU-C homing efficiency (bone marrow [6]) was “No differences; also recorded: No defect”. The “hematopoietic recovery in BM after transplantation (progenitors, Lin-Sca1+c-kit+flt3- cells, total BM)” value (bone marrow [7]) was “significant reductions in hematopoietic recovery; also recorded: delayed hematopoietic recovery”, the “Nestin+ cell death (apoptosis)” value (Nestin+ niche cells; 60HDA mice, 24 hours after 5FU) was “significant increase” and the “endothelial cells, BM monocyte/macrophages, α-SMA+ perivascular cells 12 days after 5FU” value (Nestin+ niche cells; 60HDA- vs saline-treated mice) was “failed to detect differences”. For the same molecule, the “Nestin+ cell numbers 12 days after 5FU” value (Nestin+ niche cells; 60HDA-sympathectomized mice) was “severe deficit”, the “endothelial cells, osteoblasts, CD68+ cells, α-SMA+ perivascular cells by immunofluorescence prior to 5FU” value (Nestin+ niche cells; 60HDA-treated vs saline mice) was “did not reveal differences” and the “number of Nestin+ cells prior to 5FU” value (Nestin+ niche cells; 60HDA-treated vs saline mice) was “significant increase”. The “osteoblast numbers prior to 5FU” value (Nestin+ niche cells; 60HDA-treated vs saline mice) was “slightly increased”.
